According to patent publication US11312713B2, “Imidazo[4,5-C]quinoline derivatives as LRRK2 inhibitors” (Pfizer Inc., priority 2017, dated 2022):
Where two headings read alike, the source gives them in different places.

Columns and labels:
[1] = target: mutant G2019S LRRK2 (Homo sapiens (Human), UniProt Q5S007, G2019S); assay: LRRK2 kinase assay (LanthaScreen), G2019S mutant; type: biochemical; conditions: G2019S mutant LRRK2, read-out: LRRK2, G2019S IC50
Description: (§1) LRRK2 kinase activity was measured using Lantha Screen technology from Invitrogen. GST-tagged truncated LRRK2 from Invitrogen (Cat #PV4874) was incubated with a fluorescein-labeled peptide substrate based upon ezrin/radixin/moesin (ERM), also known as LRRKtide (Invitrogen cat #PR8976A), in the presence of a dose response of compound. Upon completion, the assay was stopped and detected with a terbium labeled anti-phospho-ERM antibody (Invitrogen, cat #PR8975A). […] Using Echo acoustic dispensing, 60 nL of compound was transferred to a low volume Corning 384-well assay plate. 3 μL of a working solution of substrate (200 nM LRRKtide, 2 mM ATP) prepared in assay buffer (50 mM HEPES, pH 7.5, 3 mM MgCl2, with 2 mM DTT and 0.01% Brij35 added fresh) was added to the 60 nL compound assay plate. The kinase reaction was started with 3 μL of a working solution of LRRK2 enzyme at a concentration of 4 μg/m L. The final reaction concentrations were 100 nM LRRKtide, 1 mM ATP, 2 μg/mL LRRK2 enzyme and a compound dose response with a top dose of 3 μM. The reaction was allowed to progress at room temperature for 30 minutes and then stopped with the addition of 6 μL of detection buffer (20 mM Tris pH 7.6, 0.01% NP-40, 6 mM EDTA with 2 nM terbium labeled antiphospho-ERM). […] All final concentrations of substrate ATP and enzyme were the same.

[2] = target: LRRK2, WT (GST-tagged truncated LRRK2) (Homo sapiens, UniProt Q5S007); assay: LRRK2 kinase assay (LanthaScreen), wild type; type: biochemical
Description: as §1

[3] = data obtained using the formate salt of the Example
[4] = wild type LRRK2, data obtained using the formate salt of the Example
[5] = LanthaScreen, LRRKtide substrate
[6] = wild type LRRK2, LanthaScreen, LRRKtide substrate

Sequence of mutant G2019S LRRK2 (Q5S007 whole entry G2019S, the tested form may be a part): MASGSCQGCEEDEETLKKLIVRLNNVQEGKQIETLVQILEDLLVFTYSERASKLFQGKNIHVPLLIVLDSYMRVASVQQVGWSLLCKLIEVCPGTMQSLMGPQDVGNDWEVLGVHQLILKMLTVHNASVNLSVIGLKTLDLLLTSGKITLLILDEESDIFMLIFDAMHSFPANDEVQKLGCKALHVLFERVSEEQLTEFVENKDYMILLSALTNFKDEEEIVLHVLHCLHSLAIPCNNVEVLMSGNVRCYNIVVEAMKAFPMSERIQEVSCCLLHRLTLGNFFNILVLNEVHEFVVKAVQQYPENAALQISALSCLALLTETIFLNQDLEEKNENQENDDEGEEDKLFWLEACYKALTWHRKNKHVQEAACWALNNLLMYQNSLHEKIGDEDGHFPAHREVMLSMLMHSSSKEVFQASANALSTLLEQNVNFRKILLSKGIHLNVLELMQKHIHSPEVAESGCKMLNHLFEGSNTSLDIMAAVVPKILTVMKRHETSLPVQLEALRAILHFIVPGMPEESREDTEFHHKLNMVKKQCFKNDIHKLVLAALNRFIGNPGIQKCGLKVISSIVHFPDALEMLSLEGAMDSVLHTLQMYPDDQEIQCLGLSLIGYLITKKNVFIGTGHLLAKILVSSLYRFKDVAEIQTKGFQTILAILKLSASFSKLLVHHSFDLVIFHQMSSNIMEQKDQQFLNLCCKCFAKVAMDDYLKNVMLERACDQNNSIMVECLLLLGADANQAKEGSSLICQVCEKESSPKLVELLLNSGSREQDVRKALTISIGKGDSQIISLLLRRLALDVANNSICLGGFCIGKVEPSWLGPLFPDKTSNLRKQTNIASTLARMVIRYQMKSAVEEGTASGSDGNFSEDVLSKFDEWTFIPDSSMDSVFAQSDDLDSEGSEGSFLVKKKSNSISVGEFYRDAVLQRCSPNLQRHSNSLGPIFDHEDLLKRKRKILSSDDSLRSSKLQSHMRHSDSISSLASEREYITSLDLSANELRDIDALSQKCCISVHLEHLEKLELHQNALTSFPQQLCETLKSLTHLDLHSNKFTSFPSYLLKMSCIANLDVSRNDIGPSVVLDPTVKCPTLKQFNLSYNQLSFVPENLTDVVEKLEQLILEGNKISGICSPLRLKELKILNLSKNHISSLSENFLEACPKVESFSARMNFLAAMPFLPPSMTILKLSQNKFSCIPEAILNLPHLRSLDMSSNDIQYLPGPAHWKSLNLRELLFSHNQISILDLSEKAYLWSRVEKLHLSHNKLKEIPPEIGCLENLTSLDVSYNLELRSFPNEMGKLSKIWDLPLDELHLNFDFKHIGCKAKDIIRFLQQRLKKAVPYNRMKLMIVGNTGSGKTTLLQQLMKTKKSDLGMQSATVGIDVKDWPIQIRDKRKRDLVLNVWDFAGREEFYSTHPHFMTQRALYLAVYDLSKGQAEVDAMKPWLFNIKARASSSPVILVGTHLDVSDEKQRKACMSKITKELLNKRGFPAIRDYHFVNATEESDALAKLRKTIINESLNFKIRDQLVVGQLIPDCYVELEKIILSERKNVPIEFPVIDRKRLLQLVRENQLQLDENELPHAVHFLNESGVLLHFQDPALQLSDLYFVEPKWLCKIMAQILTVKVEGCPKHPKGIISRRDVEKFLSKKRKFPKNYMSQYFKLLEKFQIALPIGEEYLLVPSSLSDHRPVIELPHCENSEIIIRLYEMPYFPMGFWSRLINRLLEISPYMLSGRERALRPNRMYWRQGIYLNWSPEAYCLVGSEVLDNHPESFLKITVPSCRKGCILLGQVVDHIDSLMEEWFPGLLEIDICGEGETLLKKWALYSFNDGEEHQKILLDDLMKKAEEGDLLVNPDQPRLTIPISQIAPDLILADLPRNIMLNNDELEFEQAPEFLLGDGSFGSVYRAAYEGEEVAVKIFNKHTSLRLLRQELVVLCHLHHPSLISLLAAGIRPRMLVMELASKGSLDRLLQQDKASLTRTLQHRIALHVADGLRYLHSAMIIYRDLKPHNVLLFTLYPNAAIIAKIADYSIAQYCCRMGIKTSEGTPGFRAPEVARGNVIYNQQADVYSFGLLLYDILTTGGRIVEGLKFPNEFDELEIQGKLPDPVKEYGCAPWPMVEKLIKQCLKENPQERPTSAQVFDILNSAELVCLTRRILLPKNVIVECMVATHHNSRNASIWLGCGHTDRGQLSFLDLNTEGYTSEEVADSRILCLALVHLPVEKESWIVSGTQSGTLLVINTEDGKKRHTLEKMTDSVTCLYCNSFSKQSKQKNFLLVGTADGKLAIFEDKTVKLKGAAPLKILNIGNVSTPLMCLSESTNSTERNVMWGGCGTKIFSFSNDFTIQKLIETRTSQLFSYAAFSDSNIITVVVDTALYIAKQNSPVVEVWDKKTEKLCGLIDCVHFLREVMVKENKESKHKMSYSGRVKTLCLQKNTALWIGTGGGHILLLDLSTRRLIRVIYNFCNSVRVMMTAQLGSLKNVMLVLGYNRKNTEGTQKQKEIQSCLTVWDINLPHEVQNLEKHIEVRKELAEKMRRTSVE

IC50 [1, 3] | IC50 [2, 4] | IC50 [1, 5] | IC50 [2, 6] | SMILES | IC50 [2]
12.3 nM | 8.32 nM | – | – | Cc1cc(Cc2nc3cnc4ccc(C#N)cc4c3n2[C@@H]2CC[C@H](F)C2)no1 (racemic) [Example 68, 1-[cis-3-fluorocyclopentyl]-2-[(5-methyl-1,2-oxazol-3-yl)methyl]-1H-imidazo[4,5-c]quinoline-8-carbonitrile] | –
– | – | 6.33 nM | 8.56 nM | N#Cc1ccc2ncc3nc(Cc4nc5ccccc5o4)n([C@@H]4CC[C@H](F)C4)c3c2c1 (relative stereo) [Example 65, 2-(1,3-benzoxazol-2-ylmethyl)-1-[cis-3-fluorocyclopentyl]-1H-imidazo[4,5-c]quinoline-8-carbonitrile] | –
– | – | 11.8 nM | 13 nM | Cc1cnc(Cc2nc3cnc4ccc(Cl)cc4c3n2[C@@H]2CC[C@H](F)C2)cn1 (relative stereo) [Example 77, 8-chloro-1-[cis-3-fluorocyclopentyl]-2-[(5-methylpyrazin-2-yl)methyl]-1H-imidazo[4,5-c]quinoline] | –
– | – | 5.06 nM | 18 nM | N#CCC1CC(n2c(C3CCC3)nc3cnc4ccc(Cl)cc4c32)CCO1 (single isomer, unassigned) [Example 11, [cis-4-(8-Chloro-2-cyclobutyl-1H-imidazo[4,5-c]quinolin-1-yl)tetrahydro-2H-pyran-2-yl]acetonitrile] | –
– | – | 8.87 nM | 10.2 nM | CCc1nc2cnc3ccc(Cl)cc3c2n1[C@@H]1CCO[C@H](CC#N)C1 [Example 1, [(2S,4R)-4-(8-Chloro-2-ethyl-1H-imidazo[4,5-c]quinolin-1-yl)tetrahydro-2H-pyran-2-yl]acetonitrile] | –
– | – | 4.59 nM | 7.18 nM | Cc1nn2cc(Cc3nc4cnc5ccc(F)cc5c4n3[C@@H]3CCO[C@H](C)C3)nc2s1 [Example 28, 8-fluoro-2-[(2-methylimidazo[2,1-b][1,3,4]thiadiazol-6-yl)methyl]-1-[(2R,4R)-2-methyltetrahydro-2H-pyran-4-yl]-1H-imidazo[4,5-c]quinoline] | –
– | – | 22 nM | 20.6 nM | C[C@@H]1C[C@H](n2c(C3CCCC3)nc3cnc4ccc(C#N)cc4c32)CCO1 [Example 30, 2-cyclopentyl-1-[(2R,4R)-2-methyltetrahydro-2H-pyran-4-yl]-1H-imidazo[4,5-c]quinoline-8-carbonitrile] | –
– | – | 8.67 nM | 7.86 nM | Cc1nc2cnc3ccc(Cl)cc3c2n1C1CCOC(CC#N)C1 (stereo not drawn) [Example 31, [cis-4-(8-chloro-2-methyl-1H-imidazo[4,5-c]quinolin-1-yl)tetrahydro-2H-pyran-2-yl]acetonitrile] | –
– | – | 5.98 nM | 4.59 nM | Cc1nc(Cc2nc3cnc4ccc(C#N)cc4c3n2C2CN(C)CC2(F)F)no1 (centres unmarked) [Example 32, 1-(4,4-difluoro-1-methylpyrrolidin-3-yl)-2-[(5-methyl-1,2,4-oxadiazol-3-yl)methyl]-1H-imidazo[4,5-c]quinoline-8-carbonitrile] | –
6.82 nM | 8.35 nM | – | – | Cc1cnc(Cc2nc3cnc4ccc(C#N)cc4c3n2[C@@H]2CCN(C)C2)cn1 [Example 33, 2-[(5-methylpyrazin-2-yl)methyl]-1-[(3R)-1-methylpyrrolidin-3-yl]-1H-imidazo[4,5-c]quinoline-8-carbonitrile] | –
– | – | 5.04 nM | 5.53 nM | Cc1nnn(Cc2nc3cnc4ccc(C#N)cc4c3n2[C@@H]2CCN(C)C2)n1 [Example 34, 1-[(3R)-1-methylpyrrolidin-3-yl]-2-[(5-methyl-2H-tetrazol-2-yl)methyl]-1H-imidazo [4,5-c]quinoline-8-carbonitrile] | –
– | – | 6.17 nM | 7.57 nM | Cc1cc(Cc2nc3cnc4ccc(C#N)cc4c3n2[C@@H]2CCN(C)C2)on1 [Example 35, 2-[(3-methyl-1,2-oxazol-5-yl)methyl]-1-[(3R)-1-methylpyrrolidin-3-yl]-1H-imidazo [4,5-c]quinoline-8-carbonitrile] | –
– | – | 4.63 nM | 5 nM | COc1cnn(Cc2nc3cnc4ccc(C#N)cc4c3n2[C@@H]2CCN(C)C2)c1 [Example 36, 2-[(4-methoxy-1H-pyrazol-1-yl)methyl]-1-[(3R)-1-methylpyrrolidin-3-yl]-1H-imidazo[4,5-c]quinoline-8-carbonitrile] | –
– | – | 12.6 nM | 5.26 nM | Cc1nnc(Cc2nc3cnc4ccc(C#N)cc4c3n2[C@@H]2CCN(C)C2)s1 [Example 37, 1-[(3R)-1-methylpyrrolidin-3-yl]-2-[(5-methyl-1,3,4-thiadiazol-2-yl)methyl]-1H-imidazo[4,5-c]quinoline-8-carbonitrile] | –
– | – | 12.9 nM | 7.49 nM | Cc1cnc(Cc2nc3cnc4ccc(C#N)cc4c3n2[C@@H]2CCN(C)C2)o1 [Example 38, 2-[(5-methyl-1,3-oxazol-2-yl)methyl]-1-[(3R)-1-methylpyrrolidin-3-yl]-1H-imidazo [4,5-c]quinoline-8-carbonitrile] | –
– | – | 9.3 nM | 17.4 nM | C[C@@H]1C[C@H](n2c(Cc3cnc(C(F)(F)F)cn3)nc3cnc4ccc(C#N)cc4c32)CCO1 [Example 39, 1-[(2R,4R)-2-methyltetrahydro-2H-pyran-4-yl]-2-{[5-(trifluoromethyl)pyrazin-2-yl]methyl}-1H-imidazo[4,5-c]quinoline-8-carbonitrile] | –
– | – | 13.9 nM | 9.73 nM | Cc1cc(Cc2nc3cnc4ccc(Cl)cc4c3n2[C@@H]2CCN(C)C2)ncn1 [Example 40, 8-chloro-2-[(6-methylpyrimidin-4-yl)methyl]-1-[(3R)-1-methylpyrrolidin-3-yl]-1H-imidazo[4,5-c]quinoline] | –
– | – | 3.87 nM | 11.1 nM | COc1cnn(Cc2nc3cnc4ccc(C(F)(F)F)cc4c3n2[C@@H]2CCO[C@H](C)C2)c1 [Example 41, 2-[(4-methoxy-1H-pyrazol-1-yl)methyl]-1-[(2R,4R)-2-methyltetrahydro-2H-pyran-4-yl]-8-(trifluoromethyl)-1H-imidazo[4,5-c]quinoline] | –
– | – | 26 nM | 12.9 nM | Cc1nc(Cc2nc3cnc4ccc(Cl)cc4c3n2[C@@H]2CCN(C)C2)no1 [Example 42, 8-chloro-2-[(5-methyl-1,2,4-oxadiazol-3-yl)methyl]-1-[(3R)-1-methylpyrrolidin-3-yl]-1H-imidazo[4,5-c]quinoline] | –
– | – | 5.82 nM | 8.13 nM | Cc1nc(Cc2nc3cnc4ccc(Cl)cc4c3n2C2CN(C)CC2(F)F)no1 (centres unmarked) [Example 45, 8-chloro-1-(4,4-difluoro-1-methylpyrrolidin-3-yl)-2-[(5-methyl-1,2,4-oxadiazol-3-yl)methyl]-1H-imidazo[4,5-c]quinoline] | –
– | – | 7.66 nM | 9.31 nM | Cc1cn(Cc2nc3cnc4ccc(Cl)cc4c3n2C2CCOCC2(F)F)nn1 (centres unmarked) [Example 46, 8-chloro-1-(3,3-difluorotetrahydro-2H-pyran-4-yl)-2-[(4-methyl-1H-1,2,3-triazol-1-yl)methyl]-1H-imidazo[4,5-c]quinoline] | –
– | – | 1.42 nM | 2.8 nM | CN1CC(n2c(Cn3cc(C4CC4)nn3)nc3cnc4ccc(Cl)cc4c32)C(F)(F)C1 (centres unmarked) [Example 47, 8-chloro-2-[(4-cyclopropyl-1H-1,2,3-triazol-1-yl)methyl]-1-(4,4-difluoro-1-methylpyrrolidin-3-yl)-1H-imidazo[4,5-c]quinoline] | –
– | – | 1.34 nM | 4.48 nM | Cc1nnn(Cc2nc3cnc4ccc(Cl)cc4c3n2C2CN(C)CC2(F)F)n1 (centres unmarked) [Example 49, 8-chloro-1-(4,4-difluoro-1-methylpyrrolidin-3-yl)-2-[(5-methyl-2H-tetrazol-2-yl)methyl]-1H-imidazo[4,5-c]quinoline] | –

SMILES | IC50 [1, 3] | IC50 [2, 4] | IC50 [1, 5] | IC50 [2, 6] | IC50 [2]
Cc1cnn(Cc2nc3cnc4ccc(C#N)cc4c3n2C2CN(C)CC2(F)F)n1 (single isomer, unassigned) [Example 4, 1-(4,4-Difluoro-1-methylpyrrolidin-3-yl)-2-[(4-methyl-2H-1,2,3-triazol-2-yl)methyl]-1H-imidazo[4,5-c]quinoline-8-carbonitrile] | – | – | 3.31 nM | 17.6 nM | –
Cc1cnc(C(O)c2nc3cnc4ccc(Cl)cc4c3n2[C@@H]2CCO[C@H](C)C2)cn1 (single isomer, unassigned) [Example 14] | – | – | 12.8 nM | – | 14.2 nM
Cc1cnc(C(O)c2nc3cnc4ccc(Cl)cc4c3n2[C@@H]2CCO[C@H](C)C2)cn1 (single isomer, unassigned) [Example 15] | – | – | 18.4 nM | 16.3 nM | –
Cc1cnc(Cc2nc3cnc4ccc(C(F)(F)F)cc4c3n2[C@@H]2CCO[C@H](C)C2)cn1 [Example 29, 2-[(5-methylpyrazin-2-yl)methyl]-1-[(2R,4R)-2-methyltetrahydro-2H-pyran-4-yl]-8-(trifluoromethyl)-1H-imidazo[4,5-c]quinoline] | – | – | 4.13 nM | 6.47 nM | –
Cc1cn(Cc2nc3cnc4ccc(Cl)cc4c3n2C2CN(C)CC2(F)F)nn1 (centres unmarked) [Example 48, 8-chloro-1-(4,4-difluoro-1-methylpyrrolidin-3-yl)-2-[(4-methyl-1H-1,2,3-triazol-1-yl)methyl]-1H-imidazo[4,5-c]quinoline] | – | – | 0.938 nM | 3.27 nM | –
